Source: patent US11040053B2, “Compositions and methods for activating “stimulator of interferon gene”13 dependent signalling” (CHINOOK THERAPEUTICS, INC., priority 2015, dated 2021)

Legend:
hSTING(WT) = hSTING(WT) (Homo sapiens, UniProt Q86WV6, H232R); experiment: Differential scanning fluorometry (DSF) binding to purified hSTING WT; parameters: DNA encoding amino acids 140-379 (amino acid numbering corresponding to Swiss Prot Q86WV6); 6xHIS (N, cleaved yes); SUMO (N, cleaved yes); made in house; host or cells: Rosetta2 (DE3) E. coli; details: for hSTING Tm Shift WT: DSF, 1 mg/ml STING AA140-379, ligand 1 mM
hSTING(WT), sequence (Q86WV6 140-379 H232R): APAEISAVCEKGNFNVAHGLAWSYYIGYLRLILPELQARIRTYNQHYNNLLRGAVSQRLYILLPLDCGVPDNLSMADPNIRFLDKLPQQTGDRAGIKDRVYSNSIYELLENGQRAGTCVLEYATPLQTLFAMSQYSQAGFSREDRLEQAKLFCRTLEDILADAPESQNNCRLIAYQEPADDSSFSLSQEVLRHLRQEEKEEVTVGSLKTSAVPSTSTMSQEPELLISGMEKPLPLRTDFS
Procedure: (§1) Cells were grown in lysogeny broth at 37° C. until a […] absorbance of 0.6 was reached. […] Cell pellets were re-suspended on ice in a buffer containing 50 mM Tris hydrochloride (Tris-HCl) pH 7.5, 500 mM sodium chloride (NaCl), 20 mM imidazole, 10% glycerol, 1 mM tris(2-carboxyethyl)phosphine hydrochloride (TCEP) and protease inhibitor tablet (Pierce) (Buffer A). Cells were lysed using an S-450D sonifier (Emmerson industrial) on ice. […] Protein was aliquoted, flash frozen in liquid nitrogen and stored at −80° C. until use.
(§2) The protein is heated in the presence of a dye that binds to and fluoresces in hydrophobic environments. The protein is thermally denatured by heating resulting in increased dye binding to the unfolded protein and fluorescence. The temperature midpoint (Tm) of a proteins denaturation is established by calculating the half maximal value of the denaturation curve. The temperature midpoint of the protein in the presence of a ligand is directly related to the affinity of the ligand for the protein and therefore its ability to stabilize the protein at higher temperatures.
(§3) Samples were placed in hard shell PCR plate (Bio-Rad). The fluorescence as a function of temperature was recorded in a CFX 96 real time PCR machine (Bio-Rad) reading on the HEX channel, excitation 450-490, emission 560-580 nm. The temperature gradient was from 15-80° C. ramping 0.5° C. per 15 seconds and recording every 0.5° C. After subtraction of the background signal from a sample lacking protein and ligand. The midpoint temperature (Tm) was calculated by fitting the curves of the fluorescence as a function of temperature to a Boltzmann sigmoidal function (Graph Pad Prism).

hSTING HAQ allele = biological target: T1, hSTING HAQ allele (Homo sapiens, UniProt Q86WV6, G230A/H232R/R293Q/R71H); experiment: IRF-3 inducible secreted luciferase reporter in THP1-Dual cells without digitonin; assay type: cell-based; details: for EC50: without digitonin in THP1 cells (HAQ allele); for activity relative to OH reference compound, in words: Table 5 comment, THP1 cells without digitonin
T1 construct: a human monocyte cell line containing the hSTING HAQ allele; host or cells: THP1-Dual cells
T1 sequence (Q86WV6 whole entry R71H/G230A/H232R/R293Q): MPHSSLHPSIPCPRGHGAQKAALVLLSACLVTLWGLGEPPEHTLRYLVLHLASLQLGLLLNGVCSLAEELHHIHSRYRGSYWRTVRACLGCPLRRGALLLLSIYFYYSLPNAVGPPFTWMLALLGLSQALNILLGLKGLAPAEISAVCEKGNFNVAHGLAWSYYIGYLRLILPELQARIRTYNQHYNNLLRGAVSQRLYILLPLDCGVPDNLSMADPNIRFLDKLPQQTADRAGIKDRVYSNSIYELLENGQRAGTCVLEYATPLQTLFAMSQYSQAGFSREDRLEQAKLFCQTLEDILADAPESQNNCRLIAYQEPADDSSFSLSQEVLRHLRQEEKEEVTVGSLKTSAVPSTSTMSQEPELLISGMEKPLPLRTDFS
Procedure: After 30 minutes, cells were washed and fresh RPMI media containing 10% FBS was added, and cells were incubated at 37° C. with 5% CO2 Cell culture supernatants from each sample were collected after overnight incubation, and 10 μL of the cell culture supernatants was added to 50 μL QUANTI-Luc reagent (Invivogen). Type I interferon activation was determined by measuring secreted luciferase levels on a SpectraMax M3 spectrophotometer (Molecular Devices). The EC50 value was determined from the dose-response curve for the 10 concentrations from the serial dilution of the reference compounds and compounds of the invention tested in this assay as listed in Table 5.

hSTING(REF) = hSTING(REF) (Homo sapiens, UniProt Q86WV6); experiment: Differential scanning fluorometry (DSF) binding to purified hSTING REF allele; parameters: DNA encoding amino acids 140-379 (amino acid numbering corresponding to Swiss Prot Q86WV6); 6xHIS (N, cleaved yes); SUMO (N, cleaved yes); made in house; host or cells: Rosetta2 (DE3) E. coli; details: for hSTING Tm Shift REF: DSF, 1 mg/ml STING AA140-379, ligand 1 mM; for binding relative to OH reference compound, in words: Table 4 comment, REF allele hSTING
hSTING(REF), sequence (Q86WV6 140-379): as the sequence (Q86WV6 140-379 H232R) above, with R93H counted along it
Procedure: as §1, §2, §3

HAQ allele hSTING = biological target: T2, HAQ allele hSTING (Homo sapiens, UniProt Q86WV6, G230A/H232R/R293Q); experiment: Differential scanning fluorometry (DSF) binding to purified hSTING HAQ allele; details: for hSTING Tm Shift HAQ: DSF, 1 mg/ml STING AA140-379, ligand 1 mM
T2 construct: DNA encoding amino acids 140-379 (amino acid numbering corresponding to Swiss Prot Q86WV6); 6xHIS (N, cleaved yes); SUMO (N, cleaved yes); made in house; host or cells: Rosetta2 (DE3) E. coli
T2 sequence (Q86WV6 140-379 G230A/H232R/R293Q limits assumed): as the sequence (Q86WV6 140-379 H232R) above, with G91A, R154Q counted along it
Procedure: as §1, §2, §3

Compound	hSTING Tm Shift WT (hSTING(WT))	EC50 (hSTING HAQ allele)	hSTING Tm Shift REF (hSTING(REF))	hSTING Tm Shift HAQ (HAQ allele hSTING)	activity relative to OH reference compound, in words (hSTING HAQ allele)	binding relative to OH reference compound, in words (hSTING(REF))	binding relative to OH reference compound, in words (hSTING(WT); Table 4 comment, wild type hSTING)	binding relative to OH reference compound, in words (HAQ allele hSTING; Table 4 comment, HAQ allele hSTING)
Nc1nc2c(ncn2[C@@H]2O[C@@H]3CO[P@@](=O)(S)O[C@H]4[C@@H](O)[C@H](n5cnc6c(N)ncnc65)O[C@@H]4CO[P@@](=O)(S)O[C@H]3[C@H]2O)c(=O)[nH]1 [3'3'-RR-(G)(A), reference compound]	11.1 °C	28 µM	7.2 °C	21.0 °C				
Nc1nc2c(ncn2[C@@H]2O[C@@H]3COP(=O)(O)O[C@H]4[C@@H](O)[C@H](n5cnc6c(=O)[nH]c(N)nc65)O[C@@H]4COP(=O)(O)O[C@H]3[C@H]2O)c(=O)[nH]1 [3'3'-(G)(G), cyclic-[G(3′,5′)p-G(3′,5′)p], reference compound]	6.1 °C		6.1 °C	9.97 °C				
Nc1nc2c(ncn2[C@@H]2O[C@@H]3CO[P@@](=O)(S)O[C@H]4[C@@H](O)[C@H](n5cnc6c(=O)[nH]c(N)nc65)O[C@@H]4CO[P@@](=O)(S)O[C@H]3[C@H]2O)c(=O)[nH]1 [3'3'-RR-(G)(G), dithio-(Rp,Rp)-cyclic-[G(3′,5′)p-G(3′,5′)p], reference compound]	9.5 °C	75 µM	10.3 °C	15.3 °C				
CC(C)C(=O)Nc1nc2c(ncn2[C@@H]2O[C@@H]3CO[P@@](=O)(S)O[C@H]4[C@@H](F)[C@H](n5cnc6c(N)ncnc65)O[C@@H]4CO[P@@](=O)(S)O[C@H]3[C@H]2F)c(=O)[nH]1 [Compound 26, N-(9-((2R,3R,3aR,5R,7aR,9R,10R,10aR,12R,14aR)-9-(6-amino-9H-purin-9-yl)-3,10-difluoro-5,12-dimercapto-5,12-dioxidooctahydro-2H,7H-difuro[3,2-d:3′,2′-j][1,3,7,9]tetraoxa[2,8]diphosphacyclododecin-2-yl)-6-oxo-6,9-dihydro-1H-purin-2-yl)isobutyramide]	13.3 °C	23 µM	10.5 °C	18.4 °C	improved activity	improved binding		
Nc1nc2c(ncn2[C@@H]2O[C@@H]3CO[P@@](=O)(S)O[C@H]4[C@@H](F)[C@H](n5cnc6c(=O)[nH]c(N)nc65)O[C@@H]4CO[P@](=O)(S)O[C@H]3[C@H]2F)c(=O)[nH]1 [Compound 17a, 9,9′-((2R,3R,3aR,5R,7aR,9R,10R,10aR,12S,14aR)-3,10-difluoro-5,12-dimercapto-5,12-dioxidooctahydro-2H,7H-difuro [3,2-d:3′,2′-j][1,3,7,9]tetraoxa[2,8]diphosphacyclododecine-2,9-diyl)bis(2-amino-1,9-dihydro-6H-purin-6-one)]		> 150 µM						
Nc1nc2c(ncn2[C@@H]2O[C@@H]3CO[P@@](=O)(S)O[C@H]4[C@@H](F)[C@H](n5cnc6c(=O)[nH]c(N)nc65)O[C@@H]4CO[P@@](=O)(S)O[C@H]3[C@H]2F)c(=O)[nH]1 [Compound 17, 9,9′-((2R,3R,3aR,5R,7aR,9R,10R,10aR,12R,14aR)-3,10-difluoro-5,12-dimercapto-5,12-dioxidooctahydro-2H,7H-difuro [3,2-d:3′,2′-j][1,3,7,9]tetraoxa[2,8]diphosphacyclododecine-2,9-diyl)bis(2-amino-1,9-dihydro-6H-purin-6-one)]	12.6 °C	8 µM	11.4 °C	22.6 °C	improved activity	improved binding	improved binding	improved binding
Nc1nc2c(ncn2[C@@H]2O[C@@H]3CO[P@@](=O)(S)O[C@H]4[C@@H](O)[C@H](n5cnc6c(N)ncnc65)O[C@@H]4CO[P@](=O)(S)O[C@H]3[C@H]2F)c(=O)[nH]1 [Compound 23a, 2-amino-9-((2R,3R,3aR,5S,7aR,9R,10R,10aS,12R,14aR)-9-(6-amino-9H-purin-9-yl)-3-fluoro-10-hydroxy-5,12-dimercapto-5,12-dioxidooctahydro-2H,7H-difuro[3,2-d:3′,2′-j][1,3,7,9]tetraoxa[2,8]diphosphacyclododecin-2-yl)-1,9-dihydro-6H-purin-6-one]	10.6 °C	25 µM	7.8 °C	16.5 °C				
Nc1ncnc2c1ncn2[C@@H]1O[C@@H]2CO[P@](=O)(S)O[C@H]3[C@@H](F)[C@H](n4cnc5c(N)ncnc54)O[C@@H]3CO[P@@](=O)(S)O[C@H]2[C@H]1O [Compound 22a, (2R,3R,3aR,5S,7aR,9R,10R,10aS,12R,14aR)-2,9-bis(6-amino-9H-purin-9-yl)-3-fluoro-10-hydroxy-5,12-dimercaptooctahydro-2H,7H-difuro[3,2-d:3′,2′-j][1,3,7,9]tetraoxa[2,8]diphosphacyclododecine 5,12-dioxide]	6.4 °C	99 µM	4.3 °C	11.4 °C				
Nc1ncnc2c1ncn2[C@@H]1O[C@@H]2CO[P@@](=O)(S)O[C@H]3[C@H](F)[C@H](n4cnc5c(N)ncnc54)O[C@@H]3CO[P@@](=O)(S)O[C@H]2[C@@H]1F [Compound 7, (2R,3S,3aR,5R,7aR,9R,10S,10aR,12R,14aR)-2,9-bis(6-amino-9H-purin-9-yl)-3,10-difluoro-5,12-dimercaptooctahydro-2H,7H-difuro[3,2-d:3′,2′-j][1,3,7,9]tetraoxa[2,8]diphosphacyclododecine 5,12-dioxide]	3.1 °C	284 µM	0.3 °C	11.2 °C				
CC(C)C(=O)Nc1nc2c(ncn2[C@@H]2O[C@@H]3CO[P@](=O)(S)O[C@H]4[C@@H](F)[C@H](n5cnc6c(NC(=O)c7ccccc7)ncnc65)O[C@@H]4CO[P@@](=O)(S)O[C@H]3[C@H]2F)c(=O)[nH]1 [Compound 25a, N-(9-((2R,3R,3aR,5S,7aR,9R,10R,10aR,12R,14aR)-3,10-difluoro-9-(2-isobutyramido-6-oxo-1,6-dihydro-9H-purin-9-yl)-5,12-dimercapto-5,12-dioxidooctahydro-2H,7H-difuro[3,2-d:3′,2′-j][1,3,7,9]tetraoxa[2,8]diphosphacyclododecin-2-yl)-9H-purin-6-yl)benzamide]	6.8 °C	> 150 µM	5.4 °C	8.9 °C				
Nc1nc2c(ncn2[C@@H]2O[C@@H]3COP(=O)(O)O[C@H]4[C@@H](F)[C@H](n5cnc6c(N)ncnc65)O[C@@H]4COP(=O)(O)O[C@H]3[C@H]2F)c(=O)[nH]1 [Compound 30, 2-amino-9-((2R,3R,3aR,7aR,9R,10R,10aR,14aR)-9-(6-amino-9H-purin-9-yl)-3,10-difluoro-5,12-dihydroxy-5,12-dioxidooctahydro-2H,7H-difuro[3,2-d:3′,2′-j][1,3,7,9]tetraoxa[2,8]diphosphacyclododecin-2-yl)-1,9-dihydro-6H-purin-6-one]	14.3 °C	10 µM	7.8 °C	27.7 °C				
